Measured values as given in US12084422B2, “Phenyl-n-quinoline derivatives for treating a RNA virus infection” (ABIVAX, priority 2018, dated 2024).

Legend:
RSV A2 = experiment: Screening for RSV inhibition using Viral ToxGlo assay in HEp-2 cells; format: cell-based; details: human respiratory syncytial virus, HEp-2, 72 h
Experimental: Protocol for Screening Antiviral Compounds for RSV Inhibition and Cytotoxicity Using Viral ToxGlo Assay
HEp-2 cells were maintained in Eagle's minimum essential medium (EMEM) with Earle's BSS adjusted to contain 2 mM L-glutamine, 10% fetal bovine serum, 100 U/ml penicillin and 100 μg/ml streptomycin. For the purposes of the screening assay they were grown to 90% confluency, trypsinized and recovered. The trypsin was neutralised with cell culture media and cells were centrifuged at 150×g for 5 minutes before discarding the supernatant and resuspending cell pellet in assay media (EMEM with Earle's BSS adjusted to contain 2 mM L-glutamine, 2% fetal bovine serum and 100 U/ml penicillin and 100 μg/ml streptomycin). The cells were seeded into white clear-bottomed cell culture plates at a density of 1.5×10^4 cells/well in 50 μl and 4×10^3 cells/well in 25 μl for 96 well plates and 384 well plates respectively. For the media/background control column assay media only was added. Cell plates were placed in a humid chamber and incubated overnight at 37° C./5% CO2. After overnight incubation cells were checked for confluency and healthy appearance.
Test articles were made up at 10× test concentration in a maximum DMSO concentration of 10% (final assay concentration maximal 1% DMSO) and added to the cell plates in volumes of 10 μl for 96 well plates and 5 μl for 384 well plates. For cell control and virus control wells the test article solvent only was added. Virus or assay media for cytotoxicity test wells and media/cell control wells was added immediately after test articles at an MOI of 0.5, 40 or 20 μl for 96 and 384 well plates respectively. Virus suspension was prepared by thawing RSV A2 frozen stocks and diluting to the required concentration of plaque forming units in assay media on ice.
Cell plates were further incubated inside a humid chamber for 72 h p.i at 37° C./5% CO2. After the incubation period cells were observed under the microscope to check for characteristic cytopathic effect in virus control wells and healthy cells in the cell control wells. After plates were adjusted to room temperature 20/40 μl Viral ToxGlo (Promega) was added to each well of the 384/96 well cell plates. Plates were incubated at room temperature, protected from light on a plate rocker for 20 minutes before measuring the luminescence on a spectrophotometer (Biotek Synergy HTX).
RSV inhibition was calculated as percentage of cytopathic effect inhibition relative to the virus control and cytotoxicity as percentage of cell survival relative to cell control wells. This allowed EC50 values to be calculated for each test article where a virus inhibition or cytotoxic dose response was identified. EC50 values ranging between 0.001 µM and 5 μM could thus be determined for compounds 1, 6, 10, 13, 28, 38, 43, 47, 48, 49, 50, 51, 52, 53, 54, 55, 56 and 57.

[1] = system: Chikungunya Virus (CHIKV) strain LR2006-OPY1 with GFP modification (CHIK 5'LR); experiment: Inhibition of Chikungunya virus (CHIKV) production in infected HEK293T cell line (GFP fluorescence); format: cell-based; details: HEK-293T, infected HEK293T cells; for inhibition at 1 µM: compounds at 1 μM, MOI 0.1, 22 h, values above 100 lowered to 100, read-out: % CHIKV Inhibition Mean (n = 2); for IC50: second round of experiments
Experimental: The ability of the compounds to inhibit viral replication was assessed with an experiment in which infected cells were treated by compounds of formula (I) at 1 μM. As a positive control for inhibition of Chikungunya, Ribavirin was used. Toxicity of the compounds was assessed in parallel.
Human embryonic kidney cells 293T (HEK293T, CRL-11268) were maintained in Dulbecco's modified Eagle's Medium (DMEM, 31966-021, Thermo Fisher Scientific) supplemented with 10% of fetal bovine serum (FBS), penicillin and streptomycin. After removal of the medium, cells were washed with a Ca^2+- and Mg^2+-free salt solution to remove all traces of serum. After aspiration of wash solution, cells were dissociated with 0.25% Trypsin-EDTA solution and incubated 30 s at least in 37° ° C. incubator. Concentration of cell suspension was determined by an automatic cell counter (EVE, NanoEntek) and, if needed, adjusted to 0.33×10^6 cells/mL with DMEM medium supplemented with 10% FBS.
100 μL of the cell suspension were dispatched in a ViewPlate-96 Black (6005182, PerkinElmer) and in a transparent 96-well cell culture plate (655180, Greiner bio-one). After an incubation for 24 h at 37° C. under 5% of CO2, compounds were added at the proper concentration.
An intermediate dilution was prepared with DMSO (D8418, Sigma) at 2 mM in a 96-well V-bottom microplate from the stock solution:
Mix 1 μL of the 50 mM stock library in 25 μL of DMSO.
Mix 2 μL of the 25 mM stock library in 25 μL of DMSO.
An intermediate dilution was prepared with DMSO (D8418, Sigma) at 25 mM in a 96-well V-bottom microplate from the stock solution:
Mix 2 μL of the 50 mM stock library in 2 μL of DMSO.
Serial dilutions were performed in 2 μL of DMSO 13 times to reach 0.0015 mM as follows in table III:
For both screen and determination of IC50 1 μL of each solution was added in a 1 mL Masterblock 96 wells (Greiner bio-one, 780261) containing 1 mL of DMEM medium. As a positive control, 5 μL of a 80 mM Ribavirin solution (R9644, Sigma) is added to 1 mL of DMEM. On the other hand, DMSO is used as a negative control.
[…]. Vector Borne Zoonotic Dis. 2006; 6(4)). This modified virus was used to infect cells at MOI 0.1. […].
Medium was removed after 22 h at 37° ° C. under 5% of CO2 and cells were washed as described above. 60 μL of RIPA buffer (50 mM Tris-HCl pH8, 100 mM NaCl, 1 mM MgCl2, 1% Triton X-100) was added to cells and incubated for at least 20 min before reading fluorescence signal. Pierce 660 nm Protein Assay Reagent (22660, Thermo scientific) was used to normalize fluorescence signal by protein quantity.
A first round of experiments has been performed wherein the results are expressed as inhibition percentage, which is calculated as follows, through the following steps:
1. Fluorescence intensity (FI) 509 nm/Absorbance 660 nm (A660)=A
This ratio allows considering the infection (GFP virus) to the protein amount.
2. A′=A—background noise of non-infected plate,
3. B=Fluorescence intensity (FI)/Absorbance 660 nm (A660) of infected but non treated plates,
4. C=A′/B which is then converted as the percentage of infection after treatment, compared to non-treated sample, and subsequently as the […]. For instance, a value of 100 in Table IV here below means that, after treatment, the signal attributed to GFP fluorescence is abolished, which is correlated to the absence of infection.
This value corresponds to the inhibition's percentage.
The following Table IV encompasses said C′ value for some compounds as calculated above with a mean of 2 experiments, and the corresponding standard deviation.
Some values were originally above 100. In these cases, the value has been lowered to 100. This means that some molecules also have an impact on the viability of the cells. In other words, the A value may be lower than the background noise.
Moreover, for each measure, the test was performed with Ribavirin as control. The value of the inhibition percentage was checked, giving 100%.

SMILES	EC50 (RSV A2) [µM]	inhibition at 1 µM [1] [%]	IC50 [1] [µM]
Cc1cc(OC(C)C)ccc1Nc1ccc2cccc(Cl)c2n1 [Compound 10, 8-chloro-N-(4-isopropoxy-2-methylphenyl)quinolin-2-amine]	0.585	100	0.001 to 0.2
CCc1cc(OC(C)C)ccc1Nc1ccc2cccc(Cl)c2n1 [Compound 13, 8-chloro-N-(2-ethyl-4-isopropoxyphenyl)quinolin-2-amine]	1.18	100	0.001 to 0.2
Cc1cc(OC(C)C)c(C)cc1Nc1ccc2cccc(Cl)c2n1 [Compound 43, 8-chloro-N-(4-isopropoxy-2,5-dimethylphenyl)quinolin-2-amine]	0.348		0.001 to 0.2
